In patent US6143492A, “Optical molecular sensors for cytochrome P450 activity” (Aurora Biosciences Corporation, priority 1999, dated 2000):
Where “and” joins values, the source holds several entries; their conditions need not be identical. Identical values can stand only once.

Columns and labels:
CYP 1A2 = target: T1, CYP 1A2 (Homo sapiens, UniProt P05177); assay: Kinetics of fluorogenic substrates with CYP 1A2; assay type: biochemical; conditions: for v (1.25 uM), turnover rate at 1.25 μM: CYP 1A2, substrate 1.25 uM; for v (10 uM), turnover rate at 10 μM: CYP 1A2, substrate 10 uM
T1 sequence (P05177 1-516): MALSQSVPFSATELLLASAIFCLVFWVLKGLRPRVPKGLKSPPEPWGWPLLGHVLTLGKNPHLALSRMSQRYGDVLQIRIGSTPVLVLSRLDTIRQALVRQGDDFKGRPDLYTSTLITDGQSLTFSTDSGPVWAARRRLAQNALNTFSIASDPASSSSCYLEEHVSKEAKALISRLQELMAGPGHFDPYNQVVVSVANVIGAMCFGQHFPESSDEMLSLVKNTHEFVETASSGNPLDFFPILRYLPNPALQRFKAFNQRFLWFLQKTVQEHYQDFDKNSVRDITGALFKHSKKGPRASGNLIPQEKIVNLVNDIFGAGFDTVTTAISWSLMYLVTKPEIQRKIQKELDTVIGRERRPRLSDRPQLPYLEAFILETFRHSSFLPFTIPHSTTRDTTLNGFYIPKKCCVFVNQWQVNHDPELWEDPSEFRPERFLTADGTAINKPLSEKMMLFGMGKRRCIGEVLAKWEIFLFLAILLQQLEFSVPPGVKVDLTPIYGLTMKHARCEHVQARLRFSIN

CYP 2C19 = CYP 2C19 (Homo sapiens, UniProt P33261); assay: Kinetics of fluorogenic substrates with CYP 2C19; assay type: biochemical; conditions: for kcat / kcat/Km / type of kinetics / conversion to the same fluorescent product vs the most closely structurally-related substrate: CYP 2C19; for v (1.25 uM), turnover rate at 1.25 μM: CYP 2C19, substrate 1.25 uM; for v (10 uM), turnover rate at 10 μM: CYP 2C19, substrate 10 uM
CYP 2C19, sequence (P33261 whole entry): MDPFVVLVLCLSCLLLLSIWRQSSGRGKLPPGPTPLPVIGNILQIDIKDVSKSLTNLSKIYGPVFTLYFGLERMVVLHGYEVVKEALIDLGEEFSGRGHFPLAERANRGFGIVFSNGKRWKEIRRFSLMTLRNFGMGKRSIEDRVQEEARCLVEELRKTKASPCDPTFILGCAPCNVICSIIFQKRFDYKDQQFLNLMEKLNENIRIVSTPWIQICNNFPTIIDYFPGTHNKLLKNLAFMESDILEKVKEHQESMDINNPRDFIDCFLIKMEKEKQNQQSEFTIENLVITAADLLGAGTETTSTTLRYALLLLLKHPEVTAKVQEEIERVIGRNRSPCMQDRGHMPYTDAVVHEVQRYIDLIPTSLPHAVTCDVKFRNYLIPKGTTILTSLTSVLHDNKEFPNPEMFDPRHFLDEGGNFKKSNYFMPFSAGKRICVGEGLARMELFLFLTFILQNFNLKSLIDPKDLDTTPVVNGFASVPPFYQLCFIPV

CYP 2C9 = CYP 2C9 (Homo sapiens, UniProt P11712); assay: Kinetics of fluorogenic substrates with CYP 2C9; assay type: biochemical; conditions: for conversion to the same fluorescent product vs the most closely structurally-related substrate / kcat / kcat/Km / type of kinetics: CYP 2C9; for v (1.25 uM), turnover rate at 1.25 μM: CYP 2C9, substrate 1.25 uM; for v (10 uM), turnover rate at 10 μM: CYP 2C9, substrate 10 uM
CYP 2C9, sequence (P11712 whole entry): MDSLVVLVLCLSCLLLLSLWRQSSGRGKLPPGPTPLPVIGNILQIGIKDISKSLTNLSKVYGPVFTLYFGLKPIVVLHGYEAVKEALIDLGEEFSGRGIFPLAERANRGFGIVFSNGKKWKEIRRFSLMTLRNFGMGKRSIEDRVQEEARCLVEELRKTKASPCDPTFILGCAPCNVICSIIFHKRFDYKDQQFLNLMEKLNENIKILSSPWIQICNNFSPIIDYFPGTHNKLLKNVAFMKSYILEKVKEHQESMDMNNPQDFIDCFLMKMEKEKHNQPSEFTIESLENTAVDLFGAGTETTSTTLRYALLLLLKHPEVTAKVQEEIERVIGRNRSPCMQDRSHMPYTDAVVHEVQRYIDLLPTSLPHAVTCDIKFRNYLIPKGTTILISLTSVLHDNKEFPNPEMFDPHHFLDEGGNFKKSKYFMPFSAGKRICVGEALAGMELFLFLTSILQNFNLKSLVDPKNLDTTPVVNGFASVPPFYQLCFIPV

CYP 3A4 = target: T2, CYP 3A4 (Homo sapiens, UniProt P08684); assay: Kinetics of fluorogenic substrates with CYP 3A4; assay type: biochemical; conditions: for v (1.25 uM), turnover rate at 1.25 μM: CYP 3A4, substrate 1.25 uM; for v (10 uM), turnover rate at 10 μM: CYP 3A4, substrate 10 uM
T2 construct: NADPH regenerating system
T2 sequence (P08684 whole entry): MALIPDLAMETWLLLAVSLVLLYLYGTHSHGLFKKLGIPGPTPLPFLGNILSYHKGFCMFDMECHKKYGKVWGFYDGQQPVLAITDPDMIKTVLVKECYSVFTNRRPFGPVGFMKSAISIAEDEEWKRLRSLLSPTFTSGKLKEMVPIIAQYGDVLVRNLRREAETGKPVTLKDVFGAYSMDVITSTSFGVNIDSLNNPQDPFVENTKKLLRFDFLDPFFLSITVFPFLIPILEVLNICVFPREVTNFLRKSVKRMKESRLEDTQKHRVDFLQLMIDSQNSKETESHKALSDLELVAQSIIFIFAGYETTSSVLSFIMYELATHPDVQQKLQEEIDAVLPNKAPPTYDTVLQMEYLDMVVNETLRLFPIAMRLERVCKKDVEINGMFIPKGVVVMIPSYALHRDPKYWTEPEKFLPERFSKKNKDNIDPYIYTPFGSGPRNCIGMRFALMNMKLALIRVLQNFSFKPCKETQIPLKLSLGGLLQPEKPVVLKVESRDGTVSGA
From the text: Whichever of the four abstractable hydrogen atoms (designated H^1 and H^2 in this representation of BOMR) is removed in the initial reaction step, with reference to Reaction Scheme 1 of FIG. 1, the hydroxylation product will spontaneously decompose to the free resorufin dye. In addition, the benzyloxy group, attached to the carbon carrying the two hydrogens designated H^2, contributes an inductive electronic effect on that carbon, which can stabilize the radical formed during abstraction of one of the H^2 hydrogens by a cytochrome P450.
Optimization of assay conditions was, and is preferably, accomplished through statistically validated Design of Experiments methodologies, using the commercial software package "Design-Expert®" produced by Stat-Ease® Inc. The data shown in FIGS. 4 and 5 were obtained with initial optimization.
For further understanding these terms in the context of this invention, attention is directed to FIG. 4 and the analysis of FIG. 4.

CYP 2D6 = CYP 2D6 (Homo sapiens, UniProt P10635); assay: Kinetics of fluorogenic substrates with CYP 2D6; assay type: biochemical; conditions: for kcat / kcat/Km / type of kinetics: CYP 2D6; for v (1.25 uM), turnover rate at 1.25 μM: CYP 2D6, substrate 1.25 uM; for v (10 uM), turnover rate at 10 μM: CYP 2D6, substrate 10 uM; for conversion to the same fluorescent product vs the most closely structurally-related substrate: CYP 3A4 and CYP 2D6, Table 8
CYP 2D6, sequence (P10635 whole entry): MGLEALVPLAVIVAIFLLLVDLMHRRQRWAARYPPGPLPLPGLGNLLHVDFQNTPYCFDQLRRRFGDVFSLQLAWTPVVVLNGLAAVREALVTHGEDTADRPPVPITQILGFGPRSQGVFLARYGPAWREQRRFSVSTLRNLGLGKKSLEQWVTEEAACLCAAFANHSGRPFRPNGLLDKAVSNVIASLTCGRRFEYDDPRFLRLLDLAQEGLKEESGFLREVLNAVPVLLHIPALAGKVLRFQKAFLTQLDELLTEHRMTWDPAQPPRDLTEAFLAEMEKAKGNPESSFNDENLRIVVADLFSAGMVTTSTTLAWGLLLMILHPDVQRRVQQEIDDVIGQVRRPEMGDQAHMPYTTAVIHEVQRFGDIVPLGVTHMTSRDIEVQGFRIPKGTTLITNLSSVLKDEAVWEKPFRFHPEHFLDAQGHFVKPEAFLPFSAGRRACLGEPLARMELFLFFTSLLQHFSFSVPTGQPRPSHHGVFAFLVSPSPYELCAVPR

CYP 2B6 = target: T3, CYP 2B6 (Homo sapiens, UniProt P20813); conditions: for Km: cyp 2b6
T3 sequence (P20813 1-491): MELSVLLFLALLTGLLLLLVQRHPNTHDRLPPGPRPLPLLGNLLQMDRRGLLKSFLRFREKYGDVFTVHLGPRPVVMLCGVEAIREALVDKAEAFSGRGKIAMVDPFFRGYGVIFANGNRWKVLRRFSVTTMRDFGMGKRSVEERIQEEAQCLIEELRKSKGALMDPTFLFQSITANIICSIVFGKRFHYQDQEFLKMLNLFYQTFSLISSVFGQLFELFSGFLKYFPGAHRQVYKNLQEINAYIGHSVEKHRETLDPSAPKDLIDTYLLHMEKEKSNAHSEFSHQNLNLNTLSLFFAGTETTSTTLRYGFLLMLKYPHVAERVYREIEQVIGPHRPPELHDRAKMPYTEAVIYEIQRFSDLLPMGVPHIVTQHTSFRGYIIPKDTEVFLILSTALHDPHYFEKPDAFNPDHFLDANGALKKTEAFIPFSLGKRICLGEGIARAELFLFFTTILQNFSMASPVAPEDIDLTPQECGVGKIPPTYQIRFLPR

[1] = CYP 3A4, in parentheses: from Michaelis-Menten fit (sigmoidal kinetics)

| SMILES | kcat (CYP 2C19) | kcat/Km (CYP 2C19) | type of kinetics (CYP 2C19) | v (1.25 uM), turnover rate at 1.25 μM (CYP 2C19) | v (10 uM), turnover rate at 10 μM (CYP 2C19) | conversion to the same fluorescent product vs the most closely structurally-related substrate (CYP 2C9) | kcat (CYP 2C9) | type of kinetics (CYP 2C9) | v (1.25 uM), turnover rate at 1.25 μM (CYP 2C9) | v (10 uM), turnover rate at 10 μM (CYP 2C9) | v (1.25 uM), turnover rate at 1.25 μM (CYP 3A4) | v (10 uM), turnover rate at 10 μM (CYP 3A4) | kcat (CYP 2D6) | kcat/Km (CYP 2D6) | type of kinetics (CYP 2D6) | v (1.25 uM), turnover rate at 1.25 μM (CYP 2D6) | v (10 uM), turnover rate at 10 μM (CYP 2D6) | kcat (CYP 2B6) | kcat/Km (CYP 2B6) | type of kinetics (CYP 2B6) | further results |
| --- | --- | --- | --- | --- | --- | --- | --- | --- | --- | --- | --- | --- | --- | --- | --- | --- | --- | --- | --- | --- | --- |
| CCOc1ccc2cc(C#N)c(=O)oc2c1 [3CEC, 3-Cyano-7-ethoxycoumarin, reference compound] | 0.0283 s⁻¹ | 671 M⁻¹ s⁻¹ | Michaelis- | 0.05 min⁻¹ | 0.34 min⁻¹ |  |  |  |  |  |  |  |  |  |  |  |  |  |  |  | kcat (CYP 1A2; CYP 1A2): 0.733 s⁻¹; kcat/Km (CYP 1A2; CYP 1A2): 28205 M⁻¹ s⁻¹; type of kinetics (CYP 1A2; CYP 1A2): Michaelis-; v (1.25 uM), turnover rate at 1.25 μM (CYP 1A2): 1.73 min⁻¹; v (10 uM), turnover rate at 10 μM (CYP 1A2): 12.55 min⁻¹ |
| COc1ccc(COc2ccc3c(C(F)(F)F)cc(=O)oc3c2)cc1 [MOBFC] |  |  |  |  |  | more efficient conversion | 0.00483 s⁻¹ and 0.005 s⁻¹ | Michaelis- | 0.02 min⁻¹ | 0.188 min⁻¹ and 0.19 min⁻¹ | 0.0214 min⁻¹ and 0.02 min⁻¹ | 0.3453 min⁻¹ and 0.35 min⁻¹ | 0.01 s⁻¹ | 2067 M⁻¹ s⁻¹ | Michaelis- | 0.09 min⁻¹ | 0.49 min⁻¹ |  |  |  | kcat/Km (CYP 2C9): 628 M⁻¹ s⁻¹; kcat (CYP 3A4; CYP 3A4): 0.012 s⁻¹; kcat/Km (CYP 3A4; CYP 3A4): 897 M⁻¹ s⁻¹; type of kinetics (CYP 3A4; CYP 3A4): Michaelis-; conversion to the same fluorescent product vs the most closely structurally-related substrate (CYP 2D6): more efficient conversion |
| CCOCOc1ccc2cc(C#N)c(=O)oc2c1 [EOMCC] | 0.095 s⁻¹ | 5723 M⁻¹ s⁻¹ | Michaelis- | 0.34 min⁻¹ | 2.22 min⁻¹ |  |  |  |  |  |  |  |  |  |  |  |  |  |  |  | conversion to the corresponding fluorescent product vs 3CEC (CYP 1A2; CYP 1A2): a little bit more efficiently; kcat (CYP 1A2; CYP 1A2): 0.35 s⁻¹; kcat/Km (CYP 1A2; CYP 1A2): 31818 M⁻¹ s⁻¹; type of kinetics (CYP 1A2; CYP 1A2): Michaelis-; v (1.25 uM), turnover rate at 1.25 μM (CYP 1A2): 1.77 min⁻¹; v (10 uM), turnover rate at 10 μM (CYP 1A2): 9.95 min⁻¹; conversion to the same fluorescent product vs the most closely structurally-related substrate (CYP 2C19): more efficient conversion |
| N#Cc1cc2ccc(OCOCc3ccccc3)cc2oc1=O [BOMCC, 7-Benzyloxymethyloxy-3-cyanocoumarin] | 0.0317 s⁻¹ | 2262 M⁻¹ s⁻¹ | Michaelis- | 0.16 min⁻¹ | 0.68 min⁻¹ | more efficient conversion | 0.035 s⁻¹ | Michaelis- | 0.04 min⁻¹ | 0.42 min⁻¹ | 0.12 min⁻¹ | 0.98 min⁻¹ |  |  |  |  |  | 1.1 s⁻¹ | 21154 M⁻¹ s⁻¹ | Michaelis- | conversion to the same fluorescent product vs the most closely structurally-related substrate (CYP 3A4; CYP 3A4): more efficient conversion; type of kinetics (CYP 3A4; CYP 3A4): sigmoidal; kcat (CYP 3A4; [1]): 0.167 s⁻¹; kcat/Km (CYP 3A4; [1]): 1873 M⁻¹ s⁻¹; conversion to the same fluorescent product vs the most closely structurally-related substrate (CYP 2C19): more efficient conversion; conversion to the same fluorescent product vs the most closely structurally-related substrate (CYP 2B6): more efficient conversion; v (1.25 uM), turnover rate at 1.25 μM (CYP 2B6): 0.38 min⁻¹; v (10 uM), turnover rate at 10 μM (CYP 2B6): 3.05 min⁻¹ |
| COc1ccc(COc2ccc3nc4ccc(=O)cc-4oc3c2)cc1 [MOBR, Paramethoxybenzylresorufin] |  |  | not MMK | 1.26 min⁻¹ | 0.69 min⁻¹ | more efficient conversion | 0 s⁻¹ | Michaelis- | 0.02 min⁻¹ | 0.02 min⁻¹ |  |  |  | 263 M⁻¹ s⁻¹ | Michaelis- | 0.0185 min⁻¹ and 0.02 min⁻¹ | 0.0409 min⁻¹ and 0.04 min⁻¹ | 0.0067 s⁻¹ | 58333 M⁻¹ s⁻¹ | Michaelis- | kcat/Km (CYP 2C9): 952 M⁻¹ s⁻¹; conversion to the same fluorescent product vs the most closely structurally-related substrate (CYP 2D6): more efficient conversion; v (1.25 uM), turnover rate at 1.25 μM (CYP 2B6): 0.08 min⁻¹; v (10 uM), turnover rate at 10 μM (CYP 2B6): 0.10 min⁻¹; Km (CYP 2B6): 0.1 µM |
| COc1ccc2c(C(F)(F)F)cc(=O)oc2c1 [MFC, 7-Methoxy-4-trifluoromethylcoumarin, reference compound] |  |  |  |  |  |  | 0.0067 s⁻¹ | Michaelis- | 0.01 min⁻¹ | 0.03 min⁻¹ |  |  | 0.005 s⁻¹ |  | Michaelis- | 0.03 min⁻¹ | 0.10 min⁻¹ | 0.0483 s⁻¹ | 34524 M⁻¹ s⁻¹ | Michaelis- | v (1.25 uM), turnover rate at 1.25 μM (CYP 2B6): 1.63 min⁻¹; v (10 uM), turnover rate at 10 μM (CYP 2B6): 2.53 min⁻¹; Km (CYP 2B6): 1.4 µM |
| CC(C)Oc1ccc2cc(C#N)c(=O)oc2c1 [IPCC] | 0.0325 s⁻¹ | 568 M⁻¹ s⁻¹ |  | 0.027 min⁻¹ | 0.232 min⁻¹ |  |  |  |  |  |  |  | 0.0017 s⁻¹ | 93 M⁻¹ s⁻¹ |  | 0.0076 min⁻¹ | 0.0378 min⁻¹ |  |  |  |  |
| COCOc1ccc2nc3ccc(=O)cc-3oc2c1 [MOMR] |  |  |  | 0.06 min⁻¹ | 0.062 min⁻¹ |  |  |  |  |  | 0.0083 min⁻¹ | 0.0338 min⁻¹ | 0.00567 s⁻¹ | 708 M⁻¹ s⁻¹ |  | 0.03396 min⁻¹ | 0.2146 min⁻¹ |  |  |  | kcat (CYP 3A4; CYP 3A4): 0.001 s⁻¹; kcat/Km (CYP 3A4; CYP 3A4): 167 M⁻¹ s⁻¹ |
